# Measurements as given in US11730714B2, “Compounds for the treatment of neuromuscular disorders” (NMD PHARMA A/S, priority 2017, dated 2023).
# How the values were obtained:
# Format in all cases: cell-based
# [1] = system: isolated rat soleus muscles; assay: Recovery of nerve-stimulated force in isolated rat soleus muscles exposed to sub-maximal tubocurarine; details: change in AUC vs AUC after 40 min in tubocurarine before addition
# Experimental: (§1) Experiments were performed using rat soleus muscles from either young (4-wk-old) or adult Wistar rats (12-14-week-old). Animal handling, killing and isolation of muscle is described elsewhere All experiments were performed using normal Krebs-Ringer bicarbonate solution (NKR). In solutions with elevated Mg^2+, MgCl2 was added to NKR-solution causing minor increases in osmolarity and ionic strength. In solutions with elevated K^+, 4 mM NaCl was replaced by 4 mM KCl in the NKR.
# In all contraction experiments, isometric force production was determined and force produced during contractions was quantified by measuring the integral of the force response (AUC). Stimulation and force recordings have been described elsewhere. […] In these latter experiments, extracellular recordings of action potentials (M-waves) could be measured without temporal overlap with stimulation artefacts.
# (§2) The aim was to find compounds that by inhibition of CIC-1 channels can recover nerve-stimulated force under conditions of fatigue including conditions where fatigue is caused by compromised neuromuscular transmission. Neuromuscular transmission dysfunction can develop because of both pre- and/or post-synaptic complications in connection with a disorder or as part of neuromuscular blockade during/after surgery. In the initial series of drug testing, experiments were performed with isolated muscles in the presence of sub-maximal ACh receptor antagonist tubocurarine. Since the inclusion of tubocurarine caused a partial loss of neuromuscular transmission this experiment mimics the conditions in myasthenia gravis and neuromuscular blockade. To mimic conditions with pre-synaptic complication (Lambert Eaton syndrome, motor neuron disorder, polyneuropathy) the intact nerve-muscle preparations were incubated at elevated extracellular Mg^2+, which is known to suppress release of ACh from nerve terminals of motor neurons.
# The experiments also illustrate that field stimulation of the entire nerve-muscle preparation selectively activates the motor nerve when short-duration pulses (0.02 vs 0.2 ms) were used. In FIG. 1A the preparation was stimulated either via field stimulation or via nerve-stimulation using a suction electrode. With the suction electrode only the nerve could be stimulated. When exposed to a submaximal concentration of the ACh receptor antagonist tubocurarine (0.2 μM) a clear drop in peak force and a further decline (or fade) in force during the stimulation developed. This drop in force clearly reflected compromised neuromuscular transmission, as the decline in peak force and fading were not seen with direct stimulation of the muscle. […] Thus, loss of M-wave and force with tubocurarine reflected partial blockade of neuromuscular function. Such fading of force and M-waves during stimulation represent clinical hallmarks of both myasthenia gravis and neuromuscular blockade in connection with surgery. In FIG. 1B, observations with normal (0.2 ms) and short-duration (0.02 ms) pulses have been compared. It can be seen that only with short-duration pulses did tubocurarine cause a decline in peak force and fading (FIG. 1B). This confirms that short-duration pulses in field stimulation could be used as specific nerve-stimulation. […] Elevated extracellular Mg^2+ could thus be used to partially block neuromuscular transmission and thus be used as a model of conditions with compromised pre-synaptic function (Lambert Eaton syndrome, amyotrophic lateral sclerosis, spinal muscular atrophy). […]
# [2] = system: isolated rat soleus muscles; assay: Recovery of nerve-stimulated force in isolated rat soleus muscles exposed to 3.5 mM Mg2+; details: 3.5 mM Mg2+, after 70 min at elevated Mg2+
# Experimental: as §1
# as §2, with “Since the inclusion of tubocurarine caused a partial loss of neuromuscular transmission this experiment mimics the conditions in myasthenia gravis and neuromuscular blockade.” left out
# isolated rat muscle = assay: Measurement of force in an in vitro model: isolated rat soleus nerve-muscle preparation, 115 nM tubocurarine; details: 50 μM compound, 40 mins exposure, 115 nM tubocurarine, isolated rat soleus nerve-muscle preparation
# Experimental: FIGS. 12A-12B. […] Force traces from a representative muscle stimulated to contract in 1) control condition before addition of neuromuscular blocking agent, 2) the force response to stimulation after 90 minutes incubation with Tubocurarine. […] The traces presented in FIG. 12A (1, 2, 3), correspond to the dotted lines in FIG. 12B, respectively.
# Recovery of force is quantified as the percentage of the force prior to tubocurarine that is recovered by the compound.
# The current invention relates to compounds that inhibit CIC-1 ion channels and increase muscle excitability and thereby improve muscle function in clinical conditions where muscle activation is failing. Such conditions result in loss of contractile function of skeletal muscle, weakness and excessive fatigue. […]
# Experimentally, soleus muscles from 4-5 wk old rats were isolated with the motor nerve remaining attached. […] Stimulation of the motor nerve led to activation of the muscle fibres and ensuing force production that was recorded.
# After mounting the nerve-muscle preparation in the experimental setup, the contractile function of the muscle was initially assessed under the control conditions (FIG. 2A). […] To quantify the ability of the compound to restore force the percentage of the initial force that was restored was determined after 40 mins of compound exposure (FIG. 2B) and the point increase is reported in Table 8.
Compound,"50 μM % change after addition (AUC of nerve-stimulated force) ([1]; 50 μM compound, AUC related to force prior to tubocurarine) [%]",150 μM % change after addition (AUC of nerve-stimulated force) ([1]; 150 μM compound) [%],50 μM % change after addition (AUC of nerve-stimulated force) ([2]; 50 μM compound) [%],100 μM % change after addition (AUC of nerve-stimulated force) ([2]; 100 μM compound) [%],Point increase (%) of initial force that was restored (isolated rat muscle) [%]
"C[C@H](Oc1ccc(Br)cc1)C(=O)O [Compound C8, (2S)-2-(4-bromophenoxy)propanoic acid]",16,23,13 ± 4,26 ± 5,–
(2S)-2-(4-bromophenoxy)(2-^2H)butanoic acid [Compound A-60],–,–,–,–,62
